Data from PubChem BioAssay AID248 (DTP/NCI, 2004).
Inconclusive results and toxic doses are left out.

Test system: L1210 leukemia ip in BDF1 mice, survival T/C
Experiment: NCI In Vivo Anticancer Drug Screen. Data for tumor model L1210 Leukemia (intraperitoneal) in B6D2F1 (BDF1) mice
Settings: endpoint: mean survival time, higher = longer survival
Procedure, shortened: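 Value reflects the ratio of survival in compound-treated mice to survival in vehicle-treated controls, with both groups carrying the same transplanted tumor.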

[1] = dose: 100.0 mg/kg/injection, schedule: Q01DX009 (ip), vehicle: saline
[2] = dose: 100.0 mg/kg/injection, schedule: Q01DX001 (ip), vehicle: saline
[3] = dose: 200.0 mg/kg/injection, schedule: Q01DX001 (ip), vehicle: saline
[4] = dose: 400.0 mg/kg/injection, schedule: Q01DX001 (ip), vehicle: saline
[5] = dose: 100.0 mg/kg/injection, schedule: Q04DX002 (ip), vehicle: Klucel (hydroxypropylcellulose) (HPC)
[6] = dose: 200.0 mg/kg/injection, schedule: Q04DX002 (ip), vehicle: Klucel (hydroxypropylcellulose) (HPC)
[7] = dose: 400.0 mg/kg/injection, schedule: Q04DX002 (ip), vehicle: Klucel (hydroxypropylcellulose) (HPC)
[8] = dose: 100.0 mg/kg/injection, schedule: Q04DX003 (ip), vehicle: saline with Tween-80
[9] = dose: 400.0 mg/kg/injection, schedule: Q04DX003 (ip), vehicle: saline with Tween-80

Compound: CC(=O)Nc1ccc2nc3ccc(NC(C)=O)cc3[n+](-c3ccccc3)c2c1
- T/C (dose: 0.25 mg/kg/injection, schedule: Q01DX Z (ip), vehicle: methylcellulose (MC)): 105 % of control
- T/C (dose: 0.5 mg/kg/injection, schedule: Q01DX Z (ip), vehicle: methylcellulose (MC)): 121 % of control
- T/C (dose: 0.75 mg/kg/injection, schedule: Q01DX009 (ip), vehicle: saline): 111 % of control
- T/C (dose: 1.25 mg/kg/injection, schedule: Q#A X Z (ip), vehicle: saline): 89 % of control
- T/C (dose: 1.5 mg/kg/injection, schedule: Q01DX009 (ip), vehicle: saline): 114 % of control
- T/C (dose: 2.5 mg/kg/injection, schedule: Q01DX Z (ip), vehicle: saline): 98 % of control
- T/C (dose: 2.5 mg/kg/injection, schedule: Q#A X Z (ip), vehicle: saline): 109 % of control
- T/C (dose: 3.0 mg/kg/injection, schedule: Q01DX009 (ip), vehicle: saline): 122 % of control
- T/C (dose: 4.4 mg/kg/injection, schedule: Q07DX Z (ip), vehicle: saline): 105 % of control
- T/C (dose: 5.0 mg/kg/injection, schedule: Q01DX Z (ip), vehicle: saline): 118 % of control
- T/C (dose: 5.0 mg/kg/injection, schedule: Q#A X Z (ip), vehicle: saline): 123 % of control
- T/C (dose: 6.0 mg/kg/injection, schedule: Q01DX009 (ip), vehicle: saline): 120 % of control
- T/C (dose: 7.5 mg/kg/injection, schedule: Q03DX Z (ip), vehicle: saline): 111 % of control
- T/C (dose: 8.8 mg/kg/injection, schedule: Q07DX Z (ip), vehicle: saline): 110 % of control
- T/C (dose: 10.0 mg/kg/injection, schedule: Q01DX009 (sc), vehicle: propolene glycol): 97 % of control
- T/C (dose: 10.0 mg/kg/injection, schedule: Q01DX015 (ip), vehicle: propolene glycol): 152 % of control
- T/C (dose: 12.5 mg/kg/injection, schedule: Q01DX Z (ip), vehicle: methylcellulose (MC)): 150 % of control
- T/C (dose: 15.0 mg/kg/injection, schedule: Q03DX Z (ip), vehicle: saline): 118 % of control
- T/C (dose: 17.5 mg/kg/injection, schedule: Q07DX Z (ip), vehicle: saline): 115 % of control
- T/C (dose: 20.0 mg/kg/injection, schedule: Q01DX010 (sc), vehicle: propolene glycol): 96 % of control
- T/C (dose: 20.0 mg/kg/injection, schedule: Q01DX Z (ip), vehicle: saline): 123 % of control
- T/C (dose: 20.0 mg/kg/injection, schedule: Q#A X Z (ip), vehicle: saline): 180 % of control
- T/C (dose: 25.0 mg/kg/injection, schedule: Q01DX Z (ip), vehicle: methylcellulose (MC)): 166 % of control
- T/C (dose: 31.25 mg/kg/injection, schedule: Q01DX009 (ip), vehicle: saline): 164 % of control
- T/C (dose: 31.3 mg/kg/injection, schedule: Q01DX009 (ip), vehicle: saline): 161 % of control
- T/C (dose: 40.0 mg/kg/injection, schedule: Q01DX010 (sc), vehicle: propolene glycol): 102 % of control
- T/C (dose: 40.0 mg/kg/injection, schedule: Q01DX015 (ip), vehicle: propolene glycol): 172 % of control
- T/C (dose: 40.0 mg/kg/injection, schedule: Q01DX Z (ip), vehicle: saline): 172 % of control
- T/C (dose: 50.0 mg/kg/injection, schedule: Q01DX009 (ip), vehicle: saline): 162 % of control
- T/C (dose: 50.0 mg/kg/injection, schedule: Q01DX Z (ip), vehicle: methylcellulose (MC)): 100 % of control
- T/C (dose: 64.0 mg/kg/injection, schedule: Q01DX010 (iv), vehicle: saline): 97 % of control
- T/C (dose: 80.0 mg/kg/injection, schedule: Q01DX009 (oral), vehicle: propolene glycol): 98 % of control
- T/C (dose: 80.0 mg/kg/injection, schedule: Q01DX009 (sc), vehicle: propolene glycol): 95 % of control
- T/C [1]: 206 % of control
- T/C (dose: 120.0 mg/kg/injection, schedule: Q01DX009 (oral), vehicle: propolene glycol): 98 % of control
- T/C (dose: 120.0 mg/kg/injection, schedule: Q03DX Z (ip), vehicle: saline): 159 % of control
- T/C (dose: 128.0 mg/kg/injection, schedule: Q01DX010 (iv), vehicle: saline): 102 % of control
- T/C (dose: 175.0 mg/kg/injection, schedule: Q01DX001 (ip), vehicle: saline): 105 % of control
- T/C (dose: 222.0 mg/kg/injection, schedule: Q01DX Z (oral), vehicle: saline): 116 % of control
- T/C (dose: 256.0 mg/kg/injection, schedule: Q01DX010 (iv), vehicle: saline): 108 % of control
- T/C (dose: 265.0 mg/kg/injection, schedule: Q01DX001 (ip), vehicle: saline): 108 % of control
- T/C (dose: 270.0 mg/kg/injection, schedule: Q01DX009 (oral), vehicle: propolene glycol): 98 % of control
- T/C (dose: 333.0 mg/kg/injection, schedule: Q01DX Z (oral), vehicle: saline): 120 % of control
- T/C (dose: 405.0 mg/kg/injection, schedule: Q01DX009 (oral), vehicle: propolene glycol): 102 % of control
- T/C (dose: 480.0 mg/kg/injection, schedule: Q03DX Z (ip), vehicle: saline): 112 % of control
- T/C (dose: 960.0 mg/kg/injection, schedule: Q03DX Z (ip), vehicle: saline): 86 % of control

Compound: Cc1[nH]c(=S)[nH]c(=O)c1CCSC(=N)N
- T/C [2]: 108 % of control
- T/C [3]: 103 % of control

Compound: C1CC2OC2CCC2OC12 (stereo unspecified)
- T/C (dose: 100.0 mg/kg/injection, schedule: Q01DX001 (ip), vehicle: other): 95 % of control
- T/C (dose: 200.0 mg/kg/injection, schedule: Q01DX001 (ip), vehicle: other): 106 % of control
- T/C (dose: 400.0 mg/kg/injection, schedule: Q01DX001 (ip), vehicle: other): 101 % of control

Compound: CCN(CC)C(=S)SCn1nc(Cl)c2ccc([N+](=O)[O-])cc21
- T/C [2]: 98 % of control
- T/C [3]: 98 % of control
- T/C [4]: 91 % of control

Compound: O=C(O)c1ccc2ccccc2c1C(=O)c1ccc(F)cc1
- T/C [5]: 101 % of control
- T/C (dose: 100.0 mg/kg/injection, schedule: Q04DX003 (ip), vehicle: other): 113 % of control
- T/C [6]: 96 % of control
- T/C (dose: 200.0 mg/kg/injection, schedule: Q04DX003 (ip), vehicle: other): 97 % of control
- T/C [7]: 92 % of control
- T/C (dose: 400.0 mg/kg/injection, schedule: Q04DX003 (ip), vehicle: other): 97 % of control

Compound: CN1CCC(OC(=O)C(O)C2CCCCC2)CC1 (stereo unspecified)
- T/C (dose: 100.0 mg/kg/injection, schedule: Q04DX003 (ip), vehicle: Klucel (hydroxypropylcellulose) (HPC)): 104 % of control
- T/C (dose: 200.0 mg/kg/injection, schedule: Q04DX003 (ip), vehicle: Klucel (hydroxypropylcellulose) (HPC)): 103 % of control

Compound: O=C(Nc1cccc(F)c1)Nc1cccc(C(F)(F)F)c1
- T/C (dose: 100.0 mg/kg/injection, schedule: Q01DX009 (ip), vehicle: Klucel (hydroxypropylcellulose) (HPC)): 96 % of control
- T/C (dose: 200.0 mg/kg/injection, schedule: Q01DX009 (ip), vehicle: Klucel (hydroxypropylcellulose) (HPC)): 95 % of control
- T/C (dose: 400.0 mg/kg/injection, schedule: Q01DX009 (ip), vehicle: Klucel (hydroxypropylcellulose) (HPC)): 105 % of control

Compound: NC(N)=N/N=C\c1ccc2ccccc2c1
- T/C [8]: 100 % of control
- T/C [9]: 88 % of control

Compound: Cn1c2nc3ccccc3c-2nc2ccccc21
- T/C [8]: 91 % of control
- T/C (dose: 200.0 mg/kg/injection, schedule: Q04DX003 (ip), vehicle: saline with Tween-80): 94 % of control
- T/C [9]: 86 % of control

Compound: CC(C)=NNC(=O)CNc1cccc(C(F)(F)F)c1
- T/C [5]: 107 % of control
- T/C [6]: 110 % of control
- T/C [7]: 100 % of control

Compound: O=C(/C=C(\OB(F)F)c1ccccc1)c1ccccc1
- T/C (dose: 50.0 mg/kg/injection, schedule: Q01DX001 (ip), vehicle: carboxymethylcellulose (CMC)): 102 % of control
- T/C (dose: 100.0 mg/kg/injection, schedule: Q01DX001 (ip), vehicle: carboxymethylcellulose (CMC)): 94 % of control
- T/C (dose: 200.0 mg/kg/injection, schedule: Q01DX001 (ip), vehicle: carboxymethylcellulose (CMC)): 100 % of control
- T/C (dose: 400.0 mg/kg/injection, schedule: Q01DX001 (ip), vehicle: carboxymethylcellulose (CMC)): 90 % of control

Compound: CC(C)(C)NC(=O)Nc1ccc(Cl)c(Cl)c1
- T/C [2]: 97 % of control
- T/C [3]: 100 % of control
- T/C [4]: 95 % of control

Compound: CCOC(=O)NC(=O)CC
- T/C [1]: 100 % of control
- T/C (dose: 100.0 mg/kg/injection, schedule: Q04DX003 (ip), vehicle: saline): 98 % of control
- T/C (dose: 200.0 mg/kg/injection, schedule: Q01DX009 (ip), vehicle: saline): 110 % of control
- T/C (dose: 200.0 mg/kg/injection, schedule: Q04DX003 (ip), vehicle: saline): 98 % of control
- T/C (dose: 400.0 mg/kg/injection, schedule: Q01DX009 (ip), vehicle: saline): 110 % of control
- T/C (dose: 400.0 mg/kg/injection, schedule: Q04DX003 (ip), vehicle: saline): 98 % of control
